From PubChem BioAssay (NCI)
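Where inhibition never reached the appropriate level, the endpoint shown equals the highest concentration tested. Otherwise, values were interpolated linearly from a five-concentration, 48-hour dose response in 96-well plates. TGI is the concentration that stops growth completely.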

Columns and labels:
Experiment in all cases: NCI tumour cell line growth inhibition, 48 h
[1] = tested on: 786-0 renal
[2] = tested on: A498 renal
[3] = tested on: A549 NSCLC
[4] = tested on: ACHN renal
[5] = tested on: CAKI-1 renal
[6] = tested on: CCRF-CEM leukemia
[7] = tested on: COLO 205 colon
[8] = tested on: DLD-1 colon
[9] = tested on: DMS 114 small cell lung
[10] = tested on: DMS 273 small cell lung
[11] = tested on: EKVX NSCLC
[12] = tested on: HCC-2998 colon
[13] = tested on: HCT-116 colon
[14] = tested on: HCT-15 colon
[15] = tested on: HOP-18 NSCLC
[16] = tested on: HOP-62 NSCLC
[17] = tested on: HOP-92 NSCLC
[18] = tested on: HT29 colon
[19] = tested on: IGROV1 ovarian
[20] = tested on: K-562 leukemia
[21] = tested on: KM20L2 colon
[22] = tested on: LOX IMVI melanoma
[23] = tested on: LXFL 529 NSCLC
[24] = tested on: M14 melanoma
[25] = tested on: M19-MEL melanoma
[26] = tested on: MALME-3M melanoma
[27] = tested on: MOLT-4 leukemia
[28] = tested on: NCI-H23 lung
[29] = tested on: NCI-H522 lung
[30] = tested on: OVCAR-3 ovarian
[31] = tested on: OVCAR-4 ovarian
[32] = tested on: OVCAR-5 ovarian
[33] = tested on: OVCAR-8 ovarian
[34] = tested on: RPMI-8226 leukemia
[35] = tested on: RXF 393 renal
[36] = tested on: RXF-631 renal
[37] = tested on: SF-268 CNS
[38] = tested on: SF-295 CNS
[39] = tested on: SF-539 CNS
[40] = tested on: SK-MEL-2 melanoma
[41] = tested on: SK-MEL-28 melanoma
[42] = tested on: SK-MEL-5 melanoma
[43] = tested on: SK-OV-3 ovarian
[44] = tested on: SN12C renal
[45] = tested on: SNB-19 CNS
[46] = tested on: SNB-75 CNS
[47] = tested on: SNB-78 CNS
[48] = tested on: SW-620 colon
[49] = tested on: TK-10 renal
[50] = tested on: U251 CNS
[51] = tested on: UACC-257 melanoma
[52] = tested on: UACC-62 melanoma
[53] = tested on: UO-31 renal
[54] = tested on: HL-60(TB) leukemia
[55] = tested on: KM12 colon
[56] = tested on: NCI-H226 lung
[57] = tested on: NCI-H460 lung
[58] = tested on: SR leukemia
[59] = tested on: XF 498 CNS

O=C(N/C(=C\c1ccc(/C=C(\NC(=O)c2ccccc2)c2nc3cc([N+](=O)[O-])ccc3[nH]2)cc1)c1nc2cc([N+](=O)[O-])ccc2[nH]1)c1ccccc1
TGI [1]: > 100 µM | TGI [2]: > 100 µM | TGI [3]: > 100 µM | TGI [4]: > 100 µM | TGI [5]: > 100 µM | TGI [6]: > 100 µM | TGI [7]: > 100 µM | TGI [8]: > 100 µM | TGI [9]: > 100 µM | TGI [10]: > 100 µM | TGI [11]: > 100 µM | TGI [12]: 77.2 µM | TGI [13]: > 100 µM | TGI [14]: > 100 µM | TGI [15]: > 100 µM | TGI [16]: > 100 µM | TGI [17]: > 100 µM | TGI [18]: > 100 µM | TGI [19]: > 100 µM | TGI [20]: > 100 µM | TGI [21]: > 100 µM | TGI [22]: > 100 µM | TGI [23]: > 100 µM | TGI [24]: > 100 µM | TGI [25]: > 100 µM | TGI [26]: > 100 µM | TGI [27]: > 100 µM | TGI [28]: > 100 µM | TGI [29]: 50 µM | TGI [30]: > 100 µM | TGI [31]: > 100 µM | TGI [32]: > 100 µM | TGI [33]: > 100 µM | TGI [34]: > 100 µM | TGI [35]: > 100 µM | TGI [36]: > 100 µM | TGI [37]: > 100 µM | TGI [38]: > 100 µM | TGI [39]: > 100 µM | TGI [40]: 83.3 µM | TGI [41]: 69.8 µM | TGI [42]: > 100 µM | TGI [43]: > 100 µM | TGI [44]: > 100 µM | TGI [45]: > 100 µM | TGI [46]: > 100 µM | TGI [47]: > 100 µM | TGI [48]: > 100 µM | TGI [49]: 78.5 µM | TGI [50]: > 100 µM | TGI [51]: > 100 µM | TGI [52]: > 100 µM | TGI [53]: > 100 µM

CCOC(=O)C1=C(C)NC(=S)NC1c1ccccc1 (stereo unspecified)
TGI [1]: > 100 µM | TGI [2]: > 100 µM | TGI [3]: > 100 µM | TGI [4]: > 100 µM | TGI [5]: > 41.2 µM | TGI [6]: > 76.9 µM | TGI [7]: > 60.7 µM | TGI [8]: > 100 µM | TGI [9]: > 57.2 µM | TGI [10]: > 100 µM | TGI [11]: > 100 µM | TGI [12]: > 100 µM | TGI [13]: > 100 µM | TGI [14]: > 56 µM | TGI [54]: > 100 µM | TGI [15]: 98.4 µM | TGI [16]: > 100 µM | TGI [17]: > 100 µM | TGI [18]: > 100 µM | TGI [19]: > 100 µM | TGI [20]: > 75.1 µM | TGI [55]: > 100 µM | TGI [21]: > 56.5 µM | TGI [22]: > 100 µM | TGI [23]: > 100 µM | TGI [24]: > 100 µM | TGI [25]: > 58.9 µM | TGI [26]: > 100 µM | TGI [27]: > 100 µM | TGI [56]: > 100 µM | TGI [28]: > 100 µM | TGI [57]: > 100 µM | TGI [29]: > 100 µM | TGI [30]: > 100 µM | TGI [31]: > 100 µM | TGI [32]: > 100 µM | TGI [33]: > 100 µM | TGI [34]: > 65.6 µM | TGI [35]: > 100 µM | TGI [36]: > 100 µM | TGI [37]: > 100 µM | TGI [38]: > 100 µM | TGI [39]: > 100 µM | TGI [40]: > 100 µM | TGI [41]: > 100 µM | TGI [42]: > 100 µM | TGI [43]: > 100 µM | TGI [44]: > 100 µM | TGI [45]: > 22.5 µM | TGI [46]: > 100 µM | TGI [47]: > 100 µM | TGI [58]: 50.2 µM | TGI [49]: > 100 µM | TGI [50]: > 56.2 µM | TGI [51]: > 100 µM | TGI [52]: > 100 µM | TGI [53]: > 57.1 µM | TGI [59]: 99.7 µM
